Laboratory results as given in ChEMBL document CHEMBL1201862, “PubChem BioAssay data set” (2004).
Activity calls are given as the source filed them.

Assays:
[1] = target: Potassium voltage-gated channel subfamily KQT member 2 (Rattus norvegicus, UniProt O88943); test: retigabine-insensitive KCNQ2 potentiators, concentration-response, dose response, cell-based, retigabine-insensitive compounds (AID 2654); assay type: functional
Coagulation factor XII = target: T1, Coagulation factor XII (Homo sapiens, UniProt P00748); assay type: functional;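 further: activated factor XIIa alpha cleaving a fluorogenic AMC peptide substrate; inhibitor potency from loss of enzyme activity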
T1 sequence (P00748 whole entry): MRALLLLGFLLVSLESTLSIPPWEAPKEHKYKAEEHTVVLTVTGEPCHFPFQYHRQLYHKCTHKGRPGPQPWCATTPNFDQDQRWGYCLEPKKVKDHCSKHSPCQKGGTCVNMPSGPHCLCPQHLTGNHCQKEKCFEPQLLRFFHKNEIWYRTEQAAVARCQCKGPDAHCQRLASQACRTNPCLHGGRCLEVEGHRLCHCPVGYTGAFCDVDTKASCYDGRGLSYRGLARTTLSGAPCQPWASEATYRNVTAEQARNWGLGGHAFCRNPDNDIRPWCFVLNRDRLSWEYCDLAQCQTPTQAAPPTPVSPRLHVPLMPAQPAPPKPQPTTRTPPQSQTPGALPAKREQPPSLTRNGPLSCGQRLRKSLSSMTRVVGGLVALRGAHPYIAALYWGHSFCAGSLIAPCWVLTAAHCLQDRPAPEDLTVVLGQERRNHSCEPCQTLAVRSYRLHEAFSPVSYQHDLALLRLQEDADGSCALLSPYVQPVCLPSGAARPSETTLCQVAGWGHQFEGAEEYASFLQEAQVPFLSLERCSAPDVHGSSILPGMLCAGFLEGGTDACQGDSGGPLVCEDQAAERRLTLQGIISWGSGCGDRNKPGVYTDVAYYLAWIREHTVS

[2] = target: Dual specificity protein phosphatase 3 (Homo sapiens, UniProt P51452); test: SAR VHR1 Fluorescent Assay for In Vitro dose response studies Set 2. [Related pubchem assays (depositor defined):AID1654, AID1661, AID1878]; assay type: functional
Chain of Dual specificity protein phosphatase 3 (P51452 whole entry): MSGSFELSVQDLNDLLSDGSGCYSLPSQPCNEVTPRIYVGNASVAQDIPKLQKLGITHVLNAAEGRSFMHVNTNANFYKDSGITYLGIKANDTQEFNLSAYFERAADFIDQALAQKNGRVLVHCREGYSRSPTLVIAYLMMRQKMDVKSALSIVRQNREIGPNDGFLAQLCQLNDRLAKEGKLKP

[3] = target: T2, Tyrosine-protein phosphatase non-receptor type 7 (Homo sapiens, UniProt P35236); test: SAR analysis of chemical inhibitors of HePTP using a Fluorescent assay - Set 2. [Related pubchem assays (depositor defined):AID1059, AID1077, AID1661, AID2085, AID521]; assay type: functional
T2 sequence (P35236 whole entry): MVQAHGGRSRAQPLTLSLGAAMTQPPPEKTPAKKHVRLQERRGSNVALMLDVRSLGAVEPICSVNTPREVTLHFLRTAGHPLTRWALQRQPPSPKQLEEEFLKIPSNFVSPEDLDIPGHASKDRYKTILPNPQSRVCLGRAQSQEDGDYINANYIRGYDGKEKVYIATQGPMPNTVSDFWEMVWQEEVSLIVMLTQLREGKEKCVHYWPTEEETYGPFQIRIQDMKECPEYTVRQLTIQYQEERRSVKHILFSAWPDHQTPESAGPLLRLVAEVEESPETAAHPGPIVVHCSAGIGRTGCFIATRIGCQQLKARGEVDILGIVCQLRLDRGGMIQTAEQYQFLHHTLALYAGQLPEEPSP

[4] = target: Eukaryotic translation initiation factor 4E (Mus musculus, UniProt P63073); test: eIF4E–eIF4G protein interaction inhibitors, dose response, biochemical, TR-FRET (AID 855); assay type: functional;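 further: potency for disrupting eIF4E binding to eIF4GI seen as loss of FRET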
Chain of Eukaryotic translation initiation factor 4E (P63073 whole entry): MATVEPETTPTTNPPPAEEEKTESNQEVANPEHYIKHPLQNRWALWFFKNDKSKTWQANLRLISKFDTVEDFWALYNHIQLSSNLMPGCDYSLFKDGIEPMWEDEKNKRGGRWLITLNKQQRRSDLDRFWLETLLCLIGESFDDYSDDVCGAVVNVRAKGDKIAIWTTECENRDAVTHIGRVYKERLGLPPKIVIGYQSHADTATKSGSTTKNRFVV

Large T antigen = Large T antigen (Simian virus 40, UniProt P03070); assay type: functional, Betapolyomavirus macacae;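 further: Confirmatory-stage PubChem screen for compounds that inhibit SV40 T antigen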
Chain of Large T antigen (P03070 whole entry): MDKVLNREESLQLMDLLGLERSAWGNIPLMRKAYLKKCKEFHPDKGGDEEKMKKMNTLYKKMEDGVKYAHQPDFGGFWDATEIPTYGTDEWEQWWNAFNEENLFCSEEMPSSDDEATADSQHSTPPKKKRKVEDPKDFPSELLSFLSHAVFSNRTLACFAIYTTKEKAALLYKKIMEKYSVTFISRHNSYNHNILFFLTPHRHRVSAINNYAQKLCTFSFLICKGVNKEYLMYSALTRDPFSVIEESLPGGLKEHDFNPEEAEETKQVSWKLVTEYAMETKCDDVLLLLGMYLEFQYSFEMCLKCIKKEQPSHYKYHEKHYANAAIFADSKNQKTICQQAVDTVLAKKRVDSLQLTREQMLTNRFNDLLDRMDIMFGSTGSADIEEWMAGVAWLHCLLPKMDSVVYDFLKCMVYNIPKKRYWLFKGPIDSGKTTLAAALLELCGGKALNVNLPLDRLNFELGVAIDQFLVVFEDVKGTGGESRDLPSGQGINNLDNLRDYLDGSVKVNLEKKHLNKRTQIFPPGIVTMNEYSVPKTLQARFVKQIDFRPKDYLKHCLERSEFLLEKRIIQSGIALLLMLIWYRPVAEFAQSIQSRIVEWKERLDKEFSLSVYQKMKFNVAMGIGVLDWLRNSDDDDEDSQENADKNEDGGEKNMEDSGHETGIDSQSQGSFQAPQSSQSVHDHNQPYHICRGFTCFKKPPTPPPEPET

[5] = target: T3, Heat shock 70 kDa protein 1A (Homo sapiens, UniProt P0DMV8); test: Hsp70 inhibitors, probe displacement, primary screen, biochemical, fluorescence polarization (AID 583)
T3 sequence (P0DMV8 whole entry): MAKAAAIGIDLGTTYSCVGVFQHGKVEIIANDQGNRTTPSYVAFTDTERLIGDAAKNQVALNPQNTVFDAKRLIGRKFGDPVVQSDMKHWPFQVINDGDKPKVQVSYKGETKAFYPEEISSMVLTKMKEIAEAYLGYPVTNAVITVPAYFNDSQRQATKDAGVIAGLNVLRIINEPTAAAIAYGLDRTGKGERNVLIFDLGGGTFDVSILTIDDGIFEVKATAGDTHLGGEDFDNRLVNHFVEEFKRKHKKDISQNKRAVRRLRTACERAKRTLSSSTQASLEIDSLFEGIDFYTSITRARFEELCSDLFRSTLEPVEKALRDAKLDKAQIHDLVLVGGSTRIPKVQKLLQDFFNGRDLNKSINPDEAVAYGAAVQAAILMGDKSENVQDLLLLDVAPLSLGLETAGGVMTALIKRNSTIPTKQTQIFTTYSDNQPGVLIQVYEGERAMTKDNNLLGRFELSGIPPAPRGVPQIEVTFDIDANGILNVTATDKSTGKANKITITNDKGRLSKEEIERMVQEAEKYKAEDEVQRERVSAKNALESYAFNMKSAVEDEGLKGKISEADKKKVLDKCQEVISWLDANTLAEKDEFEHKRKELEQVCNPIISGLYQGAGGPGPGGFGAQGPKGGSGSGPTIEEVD

[6] = target: Glutathione-S-transferase (Schistosoma japonicum, UniProt Q26513); test: biotin-GST/anti-GST TR-FRET signal inhibitors, dose response, artefact control for Vif-APOBEC3G degradation inhibitor project, biochemical (AID 1117362); assay type: functional
Chain of Glutathione-S-transferase (Q26513 whole entry): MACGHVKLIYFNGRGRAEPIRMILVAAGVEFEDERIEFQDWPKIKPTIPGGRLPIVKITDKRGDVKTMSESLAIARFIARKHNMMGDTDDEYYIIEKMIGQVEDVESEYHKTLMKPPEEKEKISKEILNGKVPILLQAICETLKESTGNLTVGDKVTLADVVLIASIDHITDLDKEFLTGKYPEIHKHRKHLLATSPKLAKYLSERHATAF

[7] = Luminescence Cell-Based Dose Confirmation HTS to Identify Activators of 5'UTR Stem-Loop Driven Alpha-Synuclein mRNA Translation in H4 Neuroglioblastoma Cells. [Related pubchem assays: 1829 (Project Summary), 1814 (Primary HTS)]; assay type: functional
[8] = target: T2, Tyrosine-protein phosphatase non-receptor type 7; test: redox-dependent HePTP inhibition, mechanism study, biochemical, fluorescence (AID 2068); assay type: functional
H4 = test: Luminescence Cell-Based Dose Response HTS to Identify Activators of 5'UTR Stem-Loop Driven Prion Protein mRNA Translation in H4 Neuroglioblastoma Cells. [Related pubchem assays: 1829 (Project Summary), 1814 (Primary HTS)]; assay type: functional; conditions: Homo sapiens
[9] = Luminescence Cell-Based Dose Response HTS to Identify Activators of Luciferase Translation or Activity in H4 […] Cells. [Related pubchem assays: 1829 (Project Summary), 1814 (Primary HTS)]; assay type: functional
[10] = target: T3, Heat shock 70 kDa protein 1A; test: Hsp70 inhibitors, biochemical, TR-FRET (AID 786)
[11] = target: Induced myeloid leukemia cell differentiation protein Mcl-1 (Homo sapiens, UniProt Q07820); assay type: functional
Chain of Induced myeloid leukemia cell differentiation protein Mcl-1 (Q07820 whole entry): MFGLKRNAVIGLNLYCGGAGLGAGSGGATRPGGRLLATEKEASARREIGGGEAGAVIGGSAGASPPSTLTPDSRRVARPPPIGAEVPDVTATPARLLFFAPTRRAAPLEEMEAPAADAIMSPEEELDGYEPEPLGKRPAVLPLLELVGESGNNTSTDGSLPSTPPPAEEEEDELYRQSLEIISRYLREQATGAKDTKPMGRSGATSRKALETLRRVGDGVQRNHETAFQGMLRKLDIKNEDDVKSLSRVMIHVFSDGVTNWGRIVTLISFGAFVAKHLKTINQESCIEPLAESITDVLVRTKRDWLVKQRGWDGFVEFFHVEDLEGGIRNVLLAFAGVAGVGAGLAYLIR

Troponin, cardiac muscle = Troponin, cardiac muscle (Homo sapiens, UniProt P19429+P45379+P63316); test: inhibitors of cardiac thin filament calcium sensitivity, dose response, biochemical, fluorescence, cardiac regulated thin filaments, triplicate IC50 (AID 504742); assay type: protein-complex assay
[12] = cytotoxicity in NIH/3T3 mouse fibroblasts, dose response, cytotoxicity control, cell-based, mouse embryonic fibroblasts, dry powder, set 2 (AID 493247); assay type: functional; conditions: Fibroblast
Trypanosoma cruzi = test: growth inhibition of intracellular Trypanosoma cruzi, dose response, cell-based, plate reader, dry powder, set 3 (AID 493197); assay type: functional
[13] = microbe, parasite or virus in culture; assay type: functional; conditions: Mycobacterium tuberculosis
Beta-galactosidase = Beta-galactosidase (Escherichia coli, UniProt Q8VNN2); test: beta-galactosidase enzyme inhibitors and activators, dose response, artefact control for CCR6 antagonist project, biochemical, E. coli enzyme, set 3 (AID 504712); assay type: functional
[14] = Luminescence Cell-Based Dose Retest to Confirm Inhibitors of Cancer Stem Cells. [Related pubchem assays (depositor defined):AID2717, AID2721]; assay type: functional; conditions: Homo sapiens
ORF 73 = ORF 73 (Human herpesvirus 8, UniProt O40947); test: inhibitors of C-LANA binding to LBS DNA, dose response, biochemical, fluorescence polarization, cherry-picked samples (AID 504725); parameters: species or system Human gammaherpesvirus 8;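 further: fluorescence polarization of a labeled DNA duplex reporting LANA DNA binding; potency is for inhibitors that block LANA binding to the DNA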
Chain of ORF 73 (O40947 whole entry): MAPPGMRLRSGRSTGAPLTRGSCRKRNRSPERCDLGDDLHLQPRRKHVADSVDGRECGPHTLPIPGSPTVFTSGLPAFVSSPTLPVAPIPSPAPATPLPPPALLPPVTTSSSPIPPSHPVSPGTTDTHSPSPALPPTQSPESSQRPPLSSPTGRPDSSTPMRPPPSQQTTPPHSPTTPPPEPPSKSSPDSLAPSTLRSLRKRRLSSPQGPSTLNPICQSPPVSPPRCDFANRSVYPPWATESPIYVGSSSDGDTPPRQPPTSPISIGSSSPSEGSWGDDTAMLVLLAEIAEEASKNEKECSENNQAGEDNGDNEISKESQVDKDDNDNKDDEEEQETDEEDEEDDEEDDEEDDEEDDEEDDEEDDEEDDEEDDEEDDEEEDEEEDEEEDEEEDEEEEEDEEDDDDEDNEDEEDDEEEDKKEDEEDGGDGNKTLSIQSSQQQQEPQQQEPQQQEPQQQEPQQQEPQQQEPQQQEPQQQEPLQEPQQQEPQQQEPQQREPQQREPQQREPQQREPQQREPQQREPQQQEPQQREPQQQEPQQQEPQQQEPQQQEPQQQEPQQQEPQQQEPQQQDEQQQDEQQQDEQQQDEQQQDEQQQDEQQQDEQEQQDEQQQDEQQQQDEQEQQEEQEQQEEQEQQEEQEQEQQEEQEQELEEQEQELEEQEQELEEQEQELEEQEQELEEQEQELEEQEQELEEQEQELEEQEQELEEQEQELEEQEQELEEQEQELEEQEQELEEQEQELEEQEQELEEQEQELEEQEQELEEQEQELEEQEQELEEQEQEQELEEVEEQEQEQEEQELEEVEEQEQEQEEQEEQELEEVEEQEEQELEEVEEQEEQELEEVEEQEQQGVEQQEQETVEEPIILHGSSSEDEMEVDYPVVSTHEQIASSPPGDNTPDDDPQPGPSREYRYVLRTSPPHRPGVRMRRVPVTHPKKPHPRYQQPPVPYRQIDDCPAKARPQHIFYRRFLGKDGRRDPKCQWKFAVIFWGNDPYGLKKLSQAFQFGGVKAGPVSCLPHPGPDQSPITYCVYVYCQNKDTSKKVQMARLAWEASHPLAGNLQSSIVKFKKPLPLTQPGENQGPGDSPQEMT

Caspase-6 = target: T4, Caspase-6 (Homo sapiens, UniProt P55212); test: human caspase-6 inhibitors, dose response, biochemical, VEID-R110 fluorescence, cherry-pick (AID 720632)
T4 sequence (P55212 whole entry): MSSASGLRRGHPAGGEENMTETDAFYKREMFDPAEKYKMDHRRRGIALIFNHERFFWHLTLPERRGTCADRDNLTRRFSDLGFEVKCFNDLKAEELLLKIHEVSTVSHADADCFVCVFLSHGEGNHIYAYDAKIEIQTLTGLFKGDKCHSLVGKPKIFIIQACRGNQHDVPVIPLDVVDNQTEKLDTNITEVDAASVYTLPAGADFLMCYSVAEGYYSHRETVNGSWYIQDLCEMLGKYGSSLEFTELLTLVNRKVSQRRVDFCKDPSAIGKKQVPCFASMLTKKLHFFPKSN

[15] = target: T5, Zinc finger protein mex-5 (Caenorhabditis elegans, UniProt Q9XUB2); test: MEX-5/TCR-2 RNA interaction inhibitors, dose response, biochemical, C. elegans, fluorescence polarization (AID 1960)
T5 sequence (Q9XUB2 whole entry): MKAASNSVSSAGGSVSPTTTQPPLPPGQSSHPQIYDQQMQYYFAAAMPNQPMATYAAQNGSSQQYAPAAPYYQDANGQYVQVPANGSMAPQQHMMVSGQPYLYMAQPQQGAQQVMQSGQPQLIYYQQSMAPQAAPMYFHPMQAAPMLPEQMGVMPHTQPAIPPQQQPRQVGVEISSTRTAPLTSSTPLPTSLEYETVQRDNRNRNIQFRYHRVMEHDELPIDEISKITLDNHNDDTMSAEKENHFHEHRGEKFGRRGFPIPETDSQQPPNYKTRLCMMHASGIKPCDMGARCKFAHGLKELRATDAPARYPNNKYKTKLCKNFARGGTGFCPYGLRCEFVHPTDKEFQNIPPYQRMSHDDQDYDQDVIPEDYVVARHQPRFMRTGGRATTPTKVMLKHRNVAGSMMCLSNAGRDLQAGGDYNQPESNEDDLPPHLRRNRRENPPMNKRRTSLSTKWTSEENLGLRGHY

HeLa = test: HeLa cell cytotoxicity, dose response, cytotoxicity control, 24 h, cherry-picked samples (AID 504726); assay type: functional, cell-based; conditions: Homo sapiens;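 further: potency for cytotoxicity as loss of luminescence signal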
[16] = target: T6, Long-chain-fatty-acid--AMP ligase FadD28 (Mycobacterium tuberculosis, UniProt P9WQ59); test: Fluorescence polarization aasay to screen for inhibitors that compete for the binding of FadD28 to a bisubstrate Measured in Biochemical System Using Plate Reader - 2147-01_Inhibitor_Dose_CherryPick_Activity.; assay type: functional, Mycobacterium tuberculosis H37Rv
T6 sequence (P9WQ59 whole entry): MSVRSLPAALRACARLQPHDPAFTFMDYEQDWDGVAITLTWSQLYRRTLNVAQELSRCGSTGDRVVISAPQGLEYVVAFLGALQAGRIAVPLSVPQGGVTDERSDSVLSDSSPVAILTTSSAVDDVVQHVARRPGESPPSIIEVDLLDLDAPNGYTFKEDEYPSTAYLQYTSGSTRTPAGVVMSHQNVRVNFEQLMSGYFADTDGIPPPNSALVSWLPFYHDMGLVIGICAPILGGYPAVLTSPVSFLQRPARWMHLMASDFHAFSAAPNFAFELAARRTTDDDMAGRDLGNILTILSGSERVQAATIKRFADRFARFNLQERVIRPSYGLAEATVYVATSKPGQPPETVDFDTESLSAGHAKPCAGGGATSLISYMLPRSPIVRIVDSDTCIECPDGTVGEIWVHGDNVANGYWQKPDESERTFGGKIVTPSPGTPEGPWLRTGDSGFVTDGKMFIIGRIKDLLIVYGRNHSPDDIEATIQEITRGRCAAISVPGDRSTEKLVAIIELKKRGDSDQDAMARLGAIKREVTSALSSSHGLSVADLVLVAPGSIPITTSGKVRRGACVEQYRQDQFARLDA

[17] = target: T7, RNA-binding protein pos-1 (Caenorhabditis elegans, UniProt G5EF15); test: inhibitors of POS-1/mex-3 RNA binding, dose response, biochemical, fluorescence polarization (AID 1964);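 further: purified POS-1 fused to maltose binding protein made in E. coli; potency of compounds blocking POS-1 binding to fluorescent RNA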
T7 sequence (G5EF15 whole entry): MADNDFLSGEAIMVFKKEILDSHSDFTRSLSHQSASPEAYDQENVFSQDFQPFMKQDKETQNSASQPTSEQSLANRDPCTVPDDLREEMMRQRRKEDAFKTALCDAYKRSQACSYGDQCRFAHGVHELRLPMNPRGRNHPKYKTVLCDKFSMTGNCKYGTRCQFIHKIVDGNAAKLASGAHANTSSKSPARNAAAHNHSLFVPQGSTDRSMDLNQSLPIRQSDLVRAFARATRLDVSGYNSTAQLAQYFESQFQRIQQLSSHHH

[18] = AlphaScreen signal interference compounds, dose response, artefact control for ARNT-TACC3 interaction inhibitor project, biochemical, luminescence, cherry-pick (AID 651705); assay type: functional;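 further: AlphaScreen bead proximity signal that flags compounds interfering with the detection technology; potency reflects signal decrease which marks the compound as an assay artifact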
Keap1/Nrf2 = Keap1/Nrf2 (Homo sapiens, UniProt Q14145); test: Keap1-Nrf2 protein-protein interaction inhibitors, dose response, biochemical, fluorescence polarization, cherry-picked samples (AID 588683)
Chain of Keap1/Nrf2 (Q16236 whole entry): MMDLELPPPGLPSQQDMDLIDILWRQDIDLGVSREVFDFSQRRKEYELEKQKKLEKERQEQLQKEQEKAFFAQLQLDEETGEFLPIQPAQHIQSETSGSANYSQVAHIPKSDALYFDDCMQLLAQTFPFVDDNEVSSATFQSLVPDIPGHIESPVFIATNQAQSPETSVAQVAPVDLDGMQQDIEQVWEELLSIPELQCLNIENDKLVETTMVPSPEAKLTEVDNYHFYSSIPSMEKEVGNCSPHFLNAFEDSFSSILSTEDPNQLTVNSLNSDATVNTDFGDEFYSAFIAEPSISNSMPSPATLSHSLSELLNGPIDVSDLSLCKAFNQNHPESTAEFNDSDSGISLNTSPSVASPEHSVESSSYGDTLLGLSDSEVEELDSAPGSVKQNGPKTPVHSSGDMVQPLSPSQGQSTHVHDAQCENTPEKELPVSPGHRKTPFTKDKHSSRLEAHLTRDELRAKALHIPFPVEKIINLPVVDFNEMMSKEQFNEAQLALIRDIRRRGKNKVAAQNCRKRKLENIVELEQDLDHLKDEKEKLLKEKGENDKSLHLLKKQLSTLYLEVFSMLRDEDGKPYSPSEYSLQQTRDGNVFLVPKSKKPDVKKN
Chain of Keap1/Nrf2 (Q14145 whole entry): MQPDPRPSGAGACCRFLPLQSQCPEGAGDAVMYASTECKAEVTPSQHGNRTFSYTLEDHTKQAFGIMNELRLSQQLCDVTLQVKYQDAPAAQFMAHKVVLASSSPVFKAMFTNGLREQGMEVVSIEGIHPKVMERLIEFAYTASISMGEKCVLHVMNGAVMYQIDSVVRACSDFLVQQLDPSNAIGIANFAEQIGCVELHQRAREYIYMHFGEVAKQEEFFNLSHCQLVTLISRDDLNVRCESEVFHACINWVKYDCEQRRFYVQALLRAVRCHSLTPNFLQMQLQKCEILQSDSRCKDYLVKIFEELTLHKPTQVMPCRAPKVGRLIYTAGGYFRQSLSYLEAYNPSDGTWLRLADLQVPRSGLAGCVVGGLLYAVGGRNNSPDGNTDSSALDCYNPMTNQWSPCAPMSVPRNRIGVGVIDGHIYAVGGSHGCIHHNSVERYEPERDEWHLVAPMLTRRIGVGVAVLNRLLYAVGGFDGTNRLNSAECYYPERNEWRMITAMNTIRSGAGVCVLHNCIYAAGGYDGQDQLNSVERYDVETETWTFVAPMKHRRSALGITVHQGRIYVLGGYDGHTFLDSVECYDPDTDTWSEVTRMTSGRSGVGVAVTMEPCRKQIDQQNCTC

[19] = target: Polyadenylate-binding protein 1 (Homo sapiens, UniProt P11940); test: PABP inhibition in translation initiation, SAR follow-up (AID 435018); assay type: functional
[20] = target: Eukaryotic translation initiation factor 4H (Homo sapiens, UniProt Q15056); test: eIF4H inhibition in translation initiation, SAR follow-up (AID 435011); assay type: functional

## O=C(NCc1ccc(Cl)cc1Cl)Nc1ccc(F)nc1
[1]
  EC50: 6.31 µM (active)

## Nc1c(C(=O)NCc2cccnc2)sc(=S)n1-c1ccccc1
Coagulation factor XII
  IC50: > 50 µM (inactive)
[2]
  IC50: 78 µM (active)
[3]
  IC50: > 100 µM (inactive)
[4]
  IC50: > 64 µM (inactive)

## O=C(Nc1ccc2nc(-c3ccco3)c(-c3ccco3)nc2c1)NC1CC1
Large T antigen
  IC50: 39.6 µM (active)
[5]
  IC50: 73.3 µM (active)
[6]
  IC50: 75.5 µM (active)
[7]
  EC50: > 120 µM (not active)
[8]
  IC50: 1.34 µM (active)
H4
  EC50: > 120 µM (not active)
[9]
  EC50: 13.2 µM (active)
[10]
  IC50: > 100 µM (not active)
[4]
  IC50: 33.1 µM (inactive)
[11]
  IC50: 2.92 µM (active)
Troponin, cardiac muscle
  IC50: 47.5 µM (inactive)

## COc1ccc(CCN(C)C(=O)C2CCCN(Cc3ccccc3Cl)C2)cc1OC (configuration not stated)
[12]
  AC50: 46.8 µM (active)
Trypanosoma cruzi
  AC50: 13.7 µM (active)

## CNC(CC(=O)c1ccc([N+](=O)[O-])cc1)C(Cl)(Cl)Cl (configuration not stated)
[13]
  CC50: > 40 µM (active)
Beta-galactosidase
  IC50: > 66.6 µM (inactive)
[14]
  AC50: 2.3 µM (active)

## NS(=O)(=O)c1ccc(N=Nc2cnc(O)c(O)c2)cc1
Large T antigen
  IC50: 27.5 µM (active)
ORF 73
  AC50: 19.5 µM (active)
Caspase-6
  AC50: 3.44 µM (active)
[15]
  EC50: 421 nM (active)
HeLa
  AC50: 43.8 µM (active)
[16]
  AC50: 22.8 µM (active)
[17]
  EC50: 5.41 µM (active)
[18]
  AC50: 135 µM (active)
Keap1/Nrf2
  AC50: 17.1 µM (active)

## COc1ccc(C(=O)N/N=C\c2ccc(OCC(=O)Nc3ccc(C)c(C)c3)c(OC)c2)cc1
[19]
  IC50: > 100 µM (inactive)
[20]
  IC50: > 100 µM (inactive)
